Results reported in ChEMBL document CHEMBL3885881, “DrugMatrix”.

Species on record: Rattus norvegicus
Assay: DrugMatrix - Regimen: Daily Repeat
Format: toxicity, organism-based, Sprague-Dawley
Set-up: regimen Daily Repeat, gender Male, age 6-8 weeks
Conditions: in vivo, vehicle 100 % SALINE; for ABSOLUTE BASOPHIL / ABSOLUTE EOSINOPHIL / ABSOLUTE LYMPHOCYTE / ABSOLUTE MONOCYTE / BASOPHIL / EOSINOPHIL / ERYTHROCYTE COUNT / HEMATOCRIT / HEMOGLOBIN / LEUKOCYTE COUNT / LYMPHOCYTE / MEAN CORPUSCULAR HEMOGLOBIN / MEAN CORPUSCULAR HEMOGLOBIN CONCENTRATION / MEAN CORPUSCULAR VOLUME / MONOCYTE / NEUTROPHIL / NUCLEATED RED BLOOD CELLS / PLATELET COUNT: tissue Blood
[1] = ip, 0.5 mg/kg, […], tissue Plasma, route intraperitoneal, dose level High, time 28 day
[2] = iv, 0 mg/kg, 72 h, dose level Control, time 3 day
[3] = iv, 0 mg/kg, 72 h, tissue Plasma, dose level Control, time 3 day
[4] = iv, 0 mg/kg, 120 h, dose level Control, time 5 day
[5] = iv, 0 mg/kg, 120 h, tissue Plasma, dose level Control, time 5 day
[6] = iv, 2 mg/kg, 72 h, dose level High, time 3 day
[7] = iv, 2 mg/kg, 72 h, tissue Plasma, dose level High, time 3 day
[8] = iv, 2 mg/kg, 120 h, dose level High, time 5 day
[9] = iv, 2 mg/kg, 120 h, tissue Plasma, dose level High, time 5 day

Sequence: CISPLATIN
- ALKALINE PHOSPHATASE [1]: 134.22 u/L
- ASPARTATE AMINOTRANSFERASE [1]: 78.67 u/L
- BLOOD UREA NITROGEN [1]: 25 mg/dL
- CHOLESTEROL [1]: 63.11 mg/dL
- CREATININE [1]: 0.82 mg/dL
- GLUCOSE [1]: 108.67 mg/dL
- LACTATE DEHYDROGENASE [1]: 80.89 u/L
- LIPASE [1]: 18.22 u/L
- PHOSPHORUS [1]: 9.11 mg/dL
- POTASSIUM [1]: 6.18 MEQ/L
- SODIUM [1]: 151.78 MEQ/L
- TOTAL BILIRUBIN [1]: 0.29 mg/dL
- URIC ACID [1]: 1.11 mg/dL
- ABSOLUTE BASOPHIL [2]: 0 CELLS/uL
- ABSOLUTE EOSINOPHIL [2]: 0 CELLS/uL
- ABSOLUTE LYMPHOCYTE [2]: 7026.17 CELLS/uL
- ABSOLUTE MONOCYTE [2]: 44.33 CELLS/uL
- BASOPHIL [2]: 0%
- EOSINOPHIL [2]: 0%
- ERYTHROCYTE COUNT [2]: 5.49 x10E6/uL
- HEMATOCRIT [2]: 33.67%
- HEMOGLOBIN [2]: 13.17 G/DL
- LEUKOCYTE COUNT [2]: 7.45 x10E3/uL
- LYMPHOCYTE [2]: 94%
- MEAN CORPUSCULAR HEMOGLOBIN [2]: 24.03 pg
- MEAN CORPUSCULAR HEMOGLOBIN CONCENTRATION [2]: 39.15 G/DL
- MEAN CORPUSCULAR VOLUME [2]: 61.4 fL
- MONOCYTE [2]: 0.67%
- NEUTROPHIL [2]: 5.33%
- NUCLEATED RED BLOOD CELLS [2]: 0.17 /100WBC
- PLATELET COUNT [2]: 1062.5 x10E3/uL
- ALANINE AMINOTRANSFERASE [3]: 53.17 u/L
- ALKALINE PHOSPHATASE [3]: 339.83 u/L
- ASPARTATE AMINOTRANSFERASE [3]: 83.33 u/L
- BLOOD UREA NITROGEN [3]: 16 mg/dL
- CARBON DIOXIDE [3]: 32.5 mmol/L
- CHLORIDE [3]: 98 MEQ/L
- CHOLESTEROL [3]: 74.67 mg/dL
- CREATININE [3]: 0.2 mg/dL
- GLUCOSE [3]: 128.67 mg/dL
- LACTATE DEHYDROGENASE [3]: 110.33 u/L
- LIPASE [3]: 9 u/L
- PHOSPHORUS [3]: 11.73 mg/dL
- POTASSIUM [3]: 6.34 MEQ/L
- TOTAL BILIRUBIN [3]: 0.18 mg/dL
- URIC ACID [3]: 1.28 mg/dL
- ABSOLUTE BASOPHIL [4]: 0 CELLS/uL
- ABSOLUTE EOSINOPHIL [4]: 26.67 CELLS/uL
- ABSOLUTE LYMPHOCYTE [4]: 8334.17 CELLS/uL
- ABSOLUTE MONOCYTE [4]: 29.5 CELLS/uL
- BASOPHIL [4]: 0%
- EOSINOPHIL [4]: 0.33%
- ERYTHROCYTE COUNT [4]: 5.44 x10E6/uL
- HEMATOCRIT [4]: 33.77%
- HEMOGLOBIN [4]: 13.05 G/DL
- LEUKOCYTE COUNT [4]: 8.98 x10E3/uL
- LYMPHOCYTE [4]: 92.33%
- MEAN CORPUSCULAR HEMOGLOBIN [4]: 24 pg
- MEAN CORPUSCULAR HEMOGLOBIN CONCENTRATION [4]: 38.67 G/DL
- MEAN CORPUSCULAR VOLUME [4]: 62.05 fL
- MONOCYTE [4]: 0.33%
- NEUTROPHIL [4]: 7%
- NUCLEATED RED BLOOD CELLS [4]: 0 /100WBC
- PLATELET COUNT [4]: 987 x10E3/uL
- ALANINE AMINOTRANSFERASE [5]: 43.5 u/L
- ALKALINE PHOSPHATASE [5]: 310.17 u/L
- ASPARTATE AMINOTRANSFERASE [5]: 76.67 u/L
- BLOOD UREA NITROGEN [5]: 17 mg/dL
- CHLORIDE [5]: 100.33 MEQ/L
- CHOLESTEROL [5]: 69.33 mg/dL
- CREATININE [5]: 0.22 mg/dL
- GLUCOSE [5]: 155.17 mg/dL
- PHOSPHORUS [5]: 11.2 mg/dL
- POTASSIUM [5]: 5.5 MEQ/L
- TOTAL BILIRUBIN [5]: 0.18 mg/dL
- URIC ACID [5]: 0.88 mg/dL
- ABSOLUTE BASOPHIL [6]: 0 CELLS/uL
- ABSOLUTE EOSINOPHIL [6]: 0 CELLS/uL
- ABSOLUTE LYMPHOCYTE [6]: 6398.67 CELLS/uL
- ABSOLUTE MONOCYTE [6]: 72 CELLS/uL
- BASOPHIL [6]: 0%
- EOSINOPHIL [6]: 0%
- ERYTHROCYTE COUNT [6]: 5.34 x10E6/uL
- HEMATOCRIT [6]: 33.2%
- HEMOGLOBIN [6]: 13.07 G/DL
- LEUKOCYTE COUNT [6]: 6.77 x10E3/uL
- LYMPHOCYTE [6]: 94.67%
- MONOCYTE [6]: 1%
- NEUTROPHIL [6]: 4.33%
- NUCLEATED RED BLOOD CELLS [6]: 0 /100WBC
- PLATELET COUNT [6]: 1193.33 x10E3/uL
- ALANINE AMINOTRANSFERASE [7]: 59.33 u/L
- ALKALINE PHOSPHATASE [7]: 321.33 u/L
- ASPARTATE AMINOTRANSFERASE [7]: 83.33 u/L
- BLOOD UREA NITROGEN [7]: 45.67 mg/dL
- CARBON DIOXIDE [7]: 28 mmol/L
- CHLORIDE [7]: 98.67 MEQ/L
- CHOLESTEROL [7]: 63.33 mg/dL
- CREATININE [7]: 0.81 mg/dL
- GLUCOSE [7]: 165.67 mg/dL
- LACTATE DEHYDROGENASE [7]: 157 u/L
- LIPASE [7]: 8.33 u/L
- PHOSPHORUS [7]: 9.77 mg/dL
- POTASSIUM [7]: 5.3 MEQ/L
- TOTAL BILIRUBIN [7]: 0.3 mg/dL
- URIC ACID [7]: 0.97 mg/dL
- ABSOLUTE BASOPHIL [8]: 0 CELLS/uL
- ABSOLUTE EOSINOPHIL [8]: 0 CELLS/uL
- ABSOLUTE LYMPHOCYTE [8]: 6841 CELLS/uL
- ABSOLUTE MONOCYTE [8]: 28.67 CELLS/uL
- BASOPHIL [8]: 0%
- EOSINOPHIL [8]: 0%
- ERYTHROCYTE COUNT [8]: 5.89 x10E6/uL
- HEMOGLOBIN [8]: 14.03 G/DL
- LEUKOCYTE COUNT [8]: 7.07 x10E3/uL
- LYMPHOCYTE [8]: 97%
- MEAN CORPUSCULAR HEMOGLOBIN [8]: 23.87 pg
- MEAN CORPUSCULAR HEMOGLOBIN CONCENTRATION [8]: 39.17 G/DL
- MONOCYTE [8]: 0.33%
- NEUTROPHIL [8]: 2.67%
- NUCLEATED RED BLOOD CELLS [8]: 0 /100WBC
- PLATELET COUNT [8]: 1329.67 x10E3/uL
- ALANINE AMINOTRANSFERASE [9]: 52 u/L
- ALKALINE PHOSPHATASE [9]: 249 u/L
- ASPARTATE AMINOTRANSFERASE [9]: 79.33 u/L
- BLOOD UREA NITROGEN [9]: 37.67 mg/dL
- CHLORIDE [9]: 100 MEQ/L
- CHOLESTEROL [9]: 80 mg/dL
- CREATININE [9]: 0.65 mg/dL
- GLUCOSE [9]: 137.33 mg/dL
- LACTATE DEHYDROGENASE [9]: 134.33 u/L
- LIPASE [9]: 11.67 u/L
- PHOSPHORUS [9]: 9.43 mg/dL
- POTASSIUM [9]: 5.31 MEQ/L
- TOTAL BILIRUBIN [9]: 0.17 mg/dL
- URIC ACID [9]: 0.67 mg/dL
